Data reported in US6365622B1 (Sigma-Tau HealthScience S.p.A., priority 1998, dated 2002).

Columns and labels:
[1] = system: cerebral ischaemia induced by occluding the middle cerebral artery (MCA); assay: Neuroprotective activity in experimental cerebral ischaemia (endothelin-1 occlusion of the MCA); format: in vivo; conditions: rat, i.v. 5 minutes after endothelin; acetyl L-carnitine 50 mg/kg, carnitine mixture 50 mg/kg, α-lipoic acid 20 mg/kg; read three days later
Method: Occlusion of the artery is induced, and the resulting ischaemia can be checked three days after this procedure by transcardiac perfusion of a solution of paraformaldehyde (4% in PBS).
After removing the brain, it was placed in fixative containing 10% sucrose, and cryostatic sections ([…]) fixed with cresyl violet were examined under the optical microscope.
The volume of the infarcted area was calculated according to the method described by Park (Park C. K., Anns. Neurol., 20-150, 1989).

[2] = system: tibial nerve after cutting the sciatic nerve in diabetic rats; assay: Sciatic nerve regeneration test in diabetic rats (alloxan, cut sciatic nerve); format: in vivo, rat; conditions: thirty days after cutting the sciatic nerve, diet 200 mg/kg acetyl L-carnitine or carnitine mixture, 50 mg/kg α-lipoic acid
Method: The technique used in these tests is the one described by Fernandez (Fernandez E., Int. J. Clin. Pharmacol. Res., 10, 85, 1990).
Diabetes (serum glucose above 450 mg/dl) was induced in a group of rats by subcutaneous injection of 100 mg/kg of alloxan. […] The compounds were administered a week before cutting the sciatic nerve and for thirty days after cutting.
The sciatic nerve was cut under anaesthesia and after exposing 1 cm of it at the level of the sciatic foramen. The border of the lesion was marked with an epineural suture. Thirty days after cutting the nerve, the tissue of the tibial nerve, one of the main divisions of the sciatic nerve, was examined, after sacrificing the animals. Four cross-sections of the tibial nerve measuring approximately 4 mm in length were thus subjected to morphological and morphometric examination by means of a semiautomatic image analyser (Zeiss Videoplan Image Analyser).
The number of regenerating axons and their density per […] were counted, as well as the degenerate elements.

[3] = system: alloxan-induced hyperglycaemia; assay: Experimental diabetic hyperglycaemia test (alloxan); format: in vivo; conditions: alloxan hyperglycaemic rat; for Serum glucose, Initial: before treatment; for Serum glucose, After 21 days: oral for three weeks, acetyl L-carnitine 200 mg/kg, α-lipoic acid 50 mg/kg
Method: Controlling serum glucose is therefore one of the most important means of preventing diseases related to diabetes. […] The hyperglycaemia was induced by subcutaneous injection of alloxan (100 mg/kg) in the rat, and those rats were considered hyperglycaemia which presented serum glucose levels above 450 mg/dl seven days after the alloxan injection.
Treatment with the test substances was given orally for a period of three weeks. At the end of this period, serum glucose was measured in the various groups of rats, both hyperglycaemic and treated.

[4] = system: sorbitol in ocular lens and sciatic nerve of diabetic rats; assay: Sorbitol content in ocular lens and sciatic nerve in the diabetic rat (streptozotocin); format: in vivo; conditions: i.p. eight days, acetyl L-carnitine 100 mg/kg, carnitine mixture 100 mg/kg, α-lipoic acid 25 mg/kg
Method: These tests were conducted in a group of rats in which diabetes was induced by means of the intravenous administration of 50 mg/kg of streptozotocin. One week after injection, serum glucose was tested and those rats were considered diabetic which presented serum glucose values above 450 mg/dl. These animals then received intraperitoneal injections, for eight consecutive days, of acetyl L-carnitine (100 mg/kg), or carnitine mixture (acetyl L-carnitine+propionyl L-carnitine+isovaleryl L-carnitine in a […] weight ratio to one another) (100 mg/kg), or (x-lipoic acid (25 mg/kg), either alone or in various combinations.
After eight days of treatment, after suitable isolation, the sorbitol concentration present in both the sciatic nerve and the ocular lens of diabetic rats was measured before and after the treatment administered.

[5] = system: proprioceptive sensory perception abnormalities induced by cisplatin; assay: Cisplatin-induced sensory neuronal lesions (rotarod test); format: in vivo; conditions: mouse rotarod; cisplatin 10 mg/kg s.c. seven days; oral seven days acetyl L-carnitine 300 mg/kg, carnitine mixture 300 mg/kg, α-lipoic acid 50 mg/kg
Method: The proprioceptive sensory perception abnormalities induced by cisplatin in the mouse were evaluated by means of the rotarod test (Apfel, S. C., Ann. Neurol., 29, 89, 1991).

[6] = system: neuromuscular conduction in diabetic rats; assay: Neuromuscular conduction test in the diabetic rat (streptozotocin); format: in vivo; conditions: after 4 weeks
Method: In these tests, we induced experimental diabetes in rats by intravenously injecting the experimental animals (rats with a mean weight of 300 g) with 50 mg/kg of streptozotocin. In the animals with induced diabetes (serum glucose above 450 mg/dl) the neuromuscular conduction velocity (NMCN7) was measured. To this end, the sciatic nerve was isolated (2 cm length) and the soleus muscle was separated from the gastrocnemius and its distal tendon cut and connected up to an isometric transducer which recorded the muscular contraction force (MCF). The muscle was stimulated via the sciatic nerve by means of two electrodes inserted at a distance of 10 mm from the nerve and connected up to a stimulator.
A bipolar electrode was placed in the distal end of the muscle for displaying the electromyogram via an oscilloscope.
The NMCV was measured in m/sec, dividing the distance between the stimulation electrodes by the mean difference in latency between the start of the […] potentials evoked in the two sites. The MCF was expressed in mm.

[7] = system: brain cells of Wistar rats; assay: Survival and growth of isolated brain cells treated with IGF-I, carnitines and α-lipoic acid; format: cell-based; conditions: 24 hours after addition; IGF-I 25 ng/ml, acetyl L-carnitine 100 ng/ml, carnitine mixture 100 ng/ml
Method: To this end, brain cells of Wistar rats were isolated according to the method described by Thanguipon (Thanguipon W., Dev. Brain Res., 11, 177, 1983) and were distributed on plates with a density of 3×10^5/cm^2. To the culture medium was added cytosine arabino-furanoside ([…]) to prevent the replication of non-neuronal cells. After eight days, the cells were washed and maintained in a culture in which the serum was replaced with BME (Basal Eagles Medium, Life Technologies, Gaithersburg, Md.) containing a 5 mM KCl concentration.
Cell survival and growth in culture were observed 24 hours after addition of the substances to the medium, on 35 mm disks in contact with 10 ng/ml of fluorescein acetate according to the technique described by Jones (Jones K. H., J. Histochem. Cytochem., 33, 77, 1985). The cell count was done with a fluorescence microscope.

[8] = system: wobbler mice; assay: Motor co-ordination abnormality test in wobbler mice; format: in vivo; conditions: oral twenty days; for percentage increase in running time: acetyl L-carnitine 200 mg/kg, carnitine mixture 200 mg/kg, α-lipoic acid 50 mg/kg, time to run 10 cm; for holding time on the edge of an inclined platform (in words): versus controls
Method: These tests were conducted in “wobbler mice”, that is to say animals that present an unsteady, staggering gait, an abnormal position of the paws and a reduced speed of movement. These abnormalities are related to progressive atrophy of the motoneurons and musculo-cutaneous nerve fibres, particularly as affecting the anterior limbs. The tests were conducted according to the procedure proposed by Mitsumoto (Mitsumoto H., Annal. Neurol., 36, 14, 1994). […] The examination was performed by evaluating, in the treated animals versus controls, the time that each animal holds on to the edge of an inclined platform (holding time) and also the time it takes to run a distance of 10 cm (running time).

[9] = Toxicological tests: high single doses, parenteral and oral; format: in vivo; conditions: rats and mice

Row | Compound | Extent of ischaemia (volume in mm^3) due to occlusion of the MCA, Volume [1] [mm^3] | Density of tibial nerve degenerate elements (per 100 nm^2) [2] [per 100 nm^2] | Number of tibial nerve degenerate elements [2] | Serum glucose, Initial [3] [mg/dL] | Serum glucose, After 21 days [3] [mg/dL] | Sorbitol, Lens [4] [nmol/mg] | Sorbitol, Sciatic nerve [4] [nmol/mg] | Equilibrium time [5] [s] | MCF (muscular contraction force) [6] [mm] | NMCV (neuromuscular conduction velocity) [6] [m/sec] | Cell growth (% vs controls) [7] [% vs controls] | percentage increase in running time [8] [%] | holding time on the edge of an inclined platform (in words) [8] | amount administered orally without any of the animals dying ([9]; oral) | amount administered parenterally without any of the animals dying ([9]; parenteral)
1 | O=C(O)CCCCC1CCSS1 (stereo not drawn) [α-lipoic acid] | 34.5 ± 2.1 | 0.20 ± 0.04 | 590 ± 0.70 | 502.8 ± 36 | 360.4 ± 30 | 30.8 ± 3.2 | 1.08 ± 0.10 | 9.9 ± 0.8 | 41.9 ± 3.3 | 40.1 ± 1.5 | 5 ± 0.39 | 40 ± 3.9 | improves | – | –
2 | IGF-I: insulin-like growth factor, a peptide of the proinsulin group (somatomedins) | – | – | – | – | – | – | – | – | – | – | 45 ± 2.8 | – | – | – | –
3 | N.N.[Cl][Pt][Cl] [Cisplatin, cisplatin] | – | – | – | – | – | – | – | 8.4 ± 0.8 | – | – | – | – | – | – | –
4 | CC(=O)O[C@H](CC(=O)[O-])C[N+](C)(C)C [Acetyl L-carnitine, acetyl L-carnitine] | 25.6 ± 1.5 | 0.16 ± 0.02 | 560 ± 61 | 509.5 ± 28 | 405.9 ± 25 | 32.7 ± 2.5 | 1.15 ± 0.11 | 9.5 ± 0.6 | 40.6 ± 3.4 | 38.5 ± 1.9 | 5 ± 0.51 | 35 ± 3.2 | improves | more than 500 mg/kg | more than 250 mg/kg
